According to US20170202792A1, “METHOD FOR TREATING TAU-ASSOCIATED DISEASES” (NATIONAL TAIWAN NORMAL UNIVERSITY, priority 2016, published 2017):

Key:
[1] = system: cholinergic, serotonergic and noradrenergic neurons; assay: Immunohistochemical staining in brain region (ChAT, TH, 5HT neurons); format: in vivo, mouse; conditions: for 5HT (serotonergic neurons in the Raphe nucleus) quantification / TH (noradrenergic neurons in the LC region) quantification: 0.25 mg/kg i.p. daily 28 days
Description: (§1) Hyperglycemia was induced by streptozotocin (STZ) to accelerated Alzheimer's disease progression of 6-month-old male transgenic 3×Tg−AD mice. Half of the 3×Tg−AD mice (n=30) received STZ (100 mg/kg) intraperitoneal injection at days 1, 2, 8, and 9 respectively as the high blood glucose group (HBG); another half of the 3×Tg-AD mice (n=30) received sodium citrate (0.1 M) at the same time points as the normal blood glucose group (NBG). Then, HBG and NBG were divided into two groups respectively to give four groups such as NBG-compound (I), HBG-compound (I), NBG-DMSO, and HBG-DMSO with n=15 in each group; wherein 0.25 mg/kg of compound (I) (in 30 μL) were intraperitoneal injected into those mice of NBG-compound (I) and HBG-compound (I) groups daily since day 14 for 28 days, and 30 μL of DMSO solvent were intraperitoneal injected into those mice of NBG-DMSO and HBG-DMSO groups daily since day 14 for 28 days. Both mouse body weight (BW) and blood glucose (BG) were monitored every week.
Neurons including the cholinergic neurons in the medial septum (MS), vertical diagonal band of Broca (VDB), and horizontal diagonal band of Broca (HDB) regions; the serotonergic neurons in the Raphe nucleus; and the noradrenergic neurons in the locus coeruleus (LC) region, which are related to cognition in the other brain regions were examined.
After the brain tissue of the mice were fixed and dehydrated, the tissue was cryosectioned (30 μm). The cryosections were then washed with phosphate buffered saline (PBS) for three times. After the optimal cutting temperature compound (OCT) was removed, 3% H2O2was used to remove the endogenous peroxidase, and the cryosections were blocked by the blocking solution for 1 hour to reduce non-specific antigen reactions. The primary antibodies (ChAT, TH, 5HT) were added and reacted for 12 hours, the secondary antibody (1:200 dilution in blocking solution, Vecter) was added and reacted for 1 hour, and then, the avidin-biotin complex was added and reacted for 1 hour. Finally, DAB-kit was used for coloring. All the stained sections were attached to the slides, dried, dehydrated, and mounted for imaging and quantification (Image Pro Plus).

[2] = system: SH-SY5Y tauRD-DsRed cells; assay: Neurite outgrowth in SH-SY5Y tauRD-DsRed cells (TUBB3 staining); format: cell-based, human; conditions: 10 μM, pre-treated 8 hours, doxycycline 7 days; untreated = 100%
Description: We used SH-SY5Y human cells expressing a DsRed-tagged proaggregation mutant (ΔK280) of the C-terminal repeat domain of tau (tauRD-Gln^244-Glu^372 of the longest tau^441 isoform). The recombinant tauRD-DsRed construct was under the control of a tetracycline-regulated, hybrid human cytomegalovirus (CMV)/TetO2 promoter that can be induced by adding doxycycline. The cell lines were grown in medium containing blasticidin (5 μg/mL) and hygromycin (100 μg/mL).
SH-SY5Y tauRD-DsRed cells were seeded in 6-well plates (1×10^5/well) in a medium containing all-trans retinoic acid (10 μM, Sigma). After 48 hours of incubation, cells were pre-treated with 10 μM Congo red and 10 μM compound (I) for 8 hours; after which, tauRD-DsRed expression was induced with 1μg/mL doxycycline for 7 days. The cells were then fixed in 4% paraformaldehyde, permeabilized with 0.1% Triton X-100, blocked in 3% BSA, and then stained with the primary antibody anti-TUBB3 (against neuronal Class III β-tubulin) (1:1000; Covance) and with a secondary anti-rabbit Alexa Fluor® 555 antibody (1:500; Molecular Probes). Nuclei were counterstained with 4′,6-diamidino-2-phenylindole (DAPI). The total outgrowth in the untreated, Congo red-treated, and compound (I)-treated cells was assessed using MetaXpress image acquisition and analysis software.

3×Tg-AD mice = assay: Morris water maze (MWM) test; format: in vivo, mouse
Description: as §1
Morris water maze (MWM) was conducted to evaluate the learning and memory ability of the mice at days 34-42. At first, during the 4 training days, each of the mice received four trails a day, wherein each of the mice was released into the water from a starting point that randomly varied between trials, and the time required for each of the mice to find the hidden platform to escape from the water maze (escape latency) was calculated, and the curve of 4 training days represent the learning profile of mice. 24 hours after the final training trial, the mice underwent three testing trials to determine the time required to find the hidden platform as a measure of spatial learning acquisition. The probe trials were conducted 48 hours after the end of the testing trials to evaluate the long-term spatial memory, wherein each mouse was allowed to swim freely in a pool without platform for 60 seconds, and the duration of the mouse spent in the target quadrant (where the platform was originally disposed) was measured to represent the degree of memory consolidation after learning.

Recombinant human GSK-3β = target: T1, Recombinant human GSK-3β (Homo sapiens, UniProt P49841); assay: GSK-3β kinase activity, ADP-Glo Kinase Assay; format: biochemical
T1 construct: purchased Promega V1991
Description: The ability of the compound (I) and SB216763 (compound (II)) for inhibiting GSK-3β activity is evaluated in the following paragraphs, wherein compound (II) is a known GSK-3β inhibitor in the art (Product No. 53442, Sigma). GSK-3β kinase activity was measured in the presence of the tested compounds (I) and (II) using ADP-Glo™ Kinase Assay system (Promega). Recombinant human GSK-3β (Product code V1991, Promega) was used as the enzyme source, and the GSK-3β substrate is derived from human muscle glycogen synthase 1 peptide ([…](pS)EDEEE) which corresponds to a region of glycogen synthase that is phosphorylated by GSK-3β. Reactions were performed at 30° C. for 30 minutes in 25 μL mixture that contained 25 μM ATP, 0.2 mg/mL GSK-3β substrate, 1 ng of GSK-3β, and serial dilutions of compound (I) or compound (II). Kinase activity data were measured as relative light units (RLU) directly correlated with the amount of ADP produced and FIG. 1 showing the analysis results.
The IC50 values of compound (I) and compound (II) were determined by using SigmaPLOT software.

T1 sequence (P49841 whole entry): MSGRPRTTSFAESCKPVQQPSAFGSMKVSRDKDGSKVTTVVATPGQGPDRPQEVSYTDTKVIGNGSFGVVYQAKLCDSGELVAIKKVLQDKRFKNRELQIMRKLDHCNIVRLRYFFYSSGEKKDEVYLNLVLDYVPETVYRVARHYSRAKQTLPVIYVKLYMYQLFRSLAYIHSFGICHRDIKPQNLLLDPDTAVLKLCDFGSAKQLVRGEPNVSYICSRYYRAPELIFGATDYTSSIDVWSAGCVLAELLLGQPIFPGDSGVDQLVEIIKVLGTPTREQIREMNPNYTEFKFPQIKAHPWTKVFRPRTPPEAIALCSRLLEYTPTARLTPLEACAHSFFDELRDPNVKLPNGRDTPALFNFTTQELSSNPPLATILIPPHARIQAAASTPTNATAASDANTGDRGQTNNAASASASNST

## CCCCC/C=C\C/C=C\C/C=C\C/C=C\CCCC(=O)Nc1ccc(O)cc1 [compound (I), (5Z, 8Z, 11Z,14Z)-N-(4-Hydroxyphenyl)icosa-5 ,8 , 11,14-tetraen amide]
[1]; HBG 3×Tg-AD mice
  5HT (serotonergic neurons in the Raphe nucleus) quantification: 33.00 ± 1.78↑↑↑
  TH (noradrenergic neurons in the LC region) quantification: 56.89 ± 4.45↓
[1]; NBG 3×Tg-AD mice
  5HT (serotonergic neurons in the Raphe nucleus) quantification: 31.80 ± 2.04
  TH (noradrenergic neurons in the LC region) quantification: 75.75 ± 3.12
[1]; data not shown, among groups
  cholinergic neurons (ChAT; MS, VDB, HDB regions): no difference was identified
[2]
  neurite growth relative to untreated cells: 140%
3×Tg-AD mice; 0.25 mg/kg i.p. daily
  duration in target quadrant of probe trial in MWM (long-term memory): ameliorate the long-term memory damages
3×Tg-AD mice; 4 training days, 0.25 mg/kg i.p. daily, among 4 groups
  swimming velocity in MWM: no difference
3×Tg-AD mice; high blood glucose groups, 0.25 mg/kg i.p. daily vs DMSO
  escape latency of 4 training days in MWM (learning ability): better learning ability
Recombinant human GSK-3β; 25 μM ATP, 1 ng GSK-3β, 30° C., 30 minutes
  IC50: 5.35 µM
Recombinant human GSK-3β; concentration of compound (I) 0.018 μM, read-out: residual activity of GSK-3β
  remaining activity at 0.018 µM: 69.6 ± 2%
